The results in this text go back to US8440700B2, “Substituted aryloxazoles and their use” (Bayer Intellectual Property GmbH, priority 2007, dated 2013).

Holding throughout (type): cell-based
In one test the target is T1, adenosine A2a receptor (Homo sapiens, UniProt P29274).
T1 construct: expressed in transfected cells; host or cells: CHO (Chinese Hamster Ovary)
The test can be described thus: Indirect determination of adenosine agonism by way of gene expression (luciferase, CHO cells), A2a. Particulars: CHO cells stably transfected with A2a receptor cDNA; 50% of maximum luciferase stimulation. The text has this:
(§1) B-1. Indirect Determination of the Adenosine Agonism by Way of Gene Expression
(§2) Cells of the CHO (Chinese Hamster Ovary) permanent cell line are transfected stably with the cDNA for the adenosine receptor subtypes A1, A2a and A2b. The adenosine A1 receptors are coupled to the adenylate cyclase by way of Gi proteins, while the adenosine A2a and A2b receptors are coupled by way of Gs proteins. In correspondence with this, the formation of cAMP in the cell is inhibited or stimulated, respectively. After that, expression of the luciferase is modulated by way of a cAMP-dependent promoter. The luciferase test is optimized, with the aim of high sensitivity and reproducibility, low variance and good suitability for implementation on a robot system, by varying several test parameters, such as cell density, duration of the growth phase and the test incubation, forskolin concentration and medium composition. The following test protocol is used for pharmacologically characterizing cells and for the robot-assisted substance screening:
(§3) The stock cultures are grown, at 37° C. and under 5% CO2, in DMEM/F12 medium containing 10% FCS (foetal calf serum) and in each case split 1:10 after 2-3 days. The test cultures are seeded in 384-well plates with 2000 cells per well and grown at 37° C. for approx. 48 hours. The medium is then replaced with a physiological sodium chloride solution (130 mM sodium chloride, 5 mM potassium chloride, 2 mM calcium chloride, 20 mM HEPES, 1 mM magnesium chloride hexahydrate, 5 mM sodium bicarbonate, pH 7.4). The substances to be tested, which are dissolved in DMSO, are pipetted into the test cultures (maximum final concentration of DMSO in the test mixture: 0.5%) in a dilution series of from 5×10^−11M to 3×10^−6M (final concentration). 10 minutes later, forskolin is added to the A1 cells and all the cultures are subsequently incubated at 37° C. for four hours. After that, 35 μl of a solution which is composed of 50% lysis reagent (30 mM disodium hydrogenphosphate, 10% glycerol, 3% TritonX100, 25 mM TrisHCl, 2 mM dithiotreitol (DTT), pH 7.8) and 50% luciferase substrate solution (2.5 mM ATP, 0.5 mM luciferin, 0.1 mM coenzyme A, 10 mM tricine, 1.35 mM magnesium sulphate, 15 mM DTT, pH 7.8) are added to the test cultures, which are shaken for approx. 1 minute and the luciferase activity is measured using a camera system. The EC50 values are determined, i.e., the concentrations at which 50% of the luciferase answer is inhibited in the case of the A1 cell, and, respectively, 50% of the maximum stimulation with the corresponding substance is achieved in the case of the A2b and A2a cells. […] Pharmacol., 357 (1998), 1-9).
(§4) Table 18 below lists the EC50 values of representative working examples for the receptor stimulation on adenosine A1, A2a and A2b receptor subtypes: […]

For a further test, the target named is T2, adenosine A2b receptor (Homo sapiens, UniProt P29275).
T2 construct: expressed in transfected cells; host or cells: CHO (Chinese Hamster Ovary)
T2 sequence (P29275 1-332): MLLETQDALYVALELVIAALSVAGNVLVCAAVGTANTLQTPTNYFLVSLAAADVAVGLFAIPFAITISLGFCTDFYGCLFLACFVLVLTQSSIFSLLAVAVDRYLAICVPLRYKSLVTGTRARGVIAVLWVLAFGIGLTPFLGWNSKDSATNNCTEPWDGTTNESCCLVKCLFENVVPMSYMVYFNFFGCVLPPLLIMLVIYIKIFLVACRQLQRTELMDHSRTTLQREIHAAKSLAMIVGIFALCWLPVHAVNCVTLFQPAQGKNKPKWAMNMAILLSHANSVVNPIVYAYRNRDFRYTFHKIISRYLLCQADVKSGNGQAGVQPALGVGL
The test can be described thus: Indirect determination of adenosine agonism by way of gene expression (luciferase, CHO cells), A2b. The conditions noted are these: CHO cells stably transfected with A2b receptor cDNA; 50% of maximum luciferase stimulation.
Text: as §1, §2, §3, §4

For another test, the target named is T3, adenosine A1 receptor (Homo sapiens, UniProt P30542).
T3 construct: expressed in transfected cells; host or cells: CHO (Chinese Hamster Ovary)
T3 sequence (P30542 1-326): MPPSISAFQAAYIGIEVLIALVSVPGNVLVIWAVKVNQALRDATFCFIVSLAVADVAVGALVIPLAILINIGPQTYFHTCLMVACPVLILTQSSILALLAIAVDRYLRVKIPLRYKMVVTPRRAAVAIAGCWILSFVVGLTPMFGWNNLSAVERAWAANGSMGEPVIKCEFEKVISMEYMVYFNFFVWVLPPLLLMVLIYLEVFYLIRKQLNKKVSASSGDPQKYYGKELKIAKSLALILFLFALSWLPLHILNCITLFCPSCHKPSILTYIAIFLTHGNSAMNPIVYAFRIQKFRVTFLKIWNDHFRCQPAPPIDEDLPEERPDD
The test is described as follows: Indirect determination of adenosine agonism by way of gene expression (luciferase, CHO cells), A1. The conditions noted are these: CHO cells stably transfected with A1 receptor cDNA; 1 μM forskolin; 50% inhibition of luciferase answer.
Text: as §1, §2, §3, §4

pEC50: −log10 of the molar value.

T1 sequence (P29274 whole entry): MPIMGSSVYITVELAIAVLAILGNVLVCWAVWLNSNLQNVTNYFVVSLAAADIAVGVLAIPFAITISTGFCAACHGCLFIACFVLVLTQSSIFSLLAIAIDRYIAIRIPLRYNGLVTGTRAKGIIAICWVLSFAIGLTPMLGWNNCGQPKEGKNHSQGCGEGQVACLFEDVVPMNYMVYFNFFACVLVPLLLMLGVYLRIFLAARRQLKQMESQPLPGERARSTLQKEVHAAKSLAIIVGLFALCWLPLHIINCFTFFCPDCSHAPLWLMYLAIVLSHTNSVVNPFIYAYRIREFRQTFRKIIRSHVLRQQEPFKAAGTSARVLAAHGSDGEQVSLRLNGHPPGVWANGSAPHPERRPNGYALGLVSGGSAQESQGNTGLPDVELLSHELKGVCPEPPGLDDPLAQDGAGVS

As usually defined, the pEC50 is the negative decadic logarithm of the EC50, by convention in mol/L. Lower therefore signals a high EC50. Usually EC50 stands for the concentration that produces a half-maximal response. A low value points to greater potency. On to `N#Cc1c(N)nc(SCc2coc(-c3ccc(F)c(Cl)c3)n2)c(C#N)c1-c1ccc(OCCO)cc1` [Example 10], for which the pEC50 is 5.95 at adenosine A2a receptor and 6.04 at adenosine A2b receptor. Also, the EC50 on adenosine A1 receptor came out at 0.5 nM.

For `N#Cc1c(N)nc(SCc2coc(-c3ccc(F)c(F)c3)n2)c(C#N)c1-c1ccc(OCCO)cc1` [Example 11], the negative logarithm of the EC50 (pEC50) at adenosine A2a receptor was 6.15; on adenosine A2b receptor it was 6.07. Further, the EC50 at adenosine A1 receptor is 0.3 nM.

On to `Cc1cc(-c2nc(CSc3nc(N)c(C#N)c(-c4ccc(OCCO)cc4)c3C#N)co2)ccc1F` [Example 31], for which the figures for the pEC50 on adenosine A2a receptor and on adenosine A2b receptor were 6.33 and 6.50, respectively. The concentration giving a half-maximal response (EC50) at adenosine A1 receptor was 0.9 nM.

For `N#Cc1c(N)nc(SCc2coc(-c3ccc(Cl)cc3)n2)c(C#N)c1-c1ccc(OC[C@@H](O)CO)cc1` [Example 48, 2-Amino-6-({[2-(4-chlorophenyl)-1,3-oxazol-4-yl]methyl}sulfanyl)-4-(4-{[(2S)-2,3-dihydroxypropyl]oxy}phenyl)pyridine-3,5-dicarbonitrile], the pEC50 on adenosine A2a receptor was 6.86; on adenosine A2b receptor, 8.36. Moreover, the EC50 at adenosine A1 receptor amounted to 0.3 nM.

For the compound `N#Cc1c(N)nc(SCc2coc(-c3ccc(Cl)cc3)n2)c(C#N)c1-c1ccc(OC[C@H](O)CO)cc1` [Example 49, 2-Amino-6-({[2-(4-chlorophenyl)-1,3-oxazol-4-yl]methyl}sulfanyl)-4-(4-{[(2R)-2,3-dihydroxypropyl]oxy}phenyl)pyridine-3,5-dicarbonitrile], the pEC50 at adenosine A2a receptor was 6.52; at adenosine A2b receptor, 7.00. At adenosine A1 receptor, a half-maximal effect (EC50) was put at 0.4 nM.

Take `Cc1oc(-c2ccc(F)cc2)nc1CSc1nc(N)c(C#N)c(-c2ccc(OC[C@@H](O)CO)cc2)c1C#N` [Example 50]: on adenosine A2b receptor, the pEC50 is 6.93. In addition, the midpoint of the response at adenosine A1 receptor, the EC50, lay at 0.4 nM.

With `COC(=O)c1ccc(-c2nc(CSc3nc(N)c(C#N)c(-c4ccc(OC[C@@H](O)CO)cc4)c3C#N)c(C)o2)cc1` [Example 57], the pEC50 on adenosine A2a receptor is 6.28; at adenosine A2b receptor it was 7.36. The compound also gave an EC50 on adenosine A1 receptor of 0.2 nM.

For the compound `Cc1oc(-c2ccc(Cl)cc2)nc1CSc1nc(N)c(C#N)c(-c2ccc(OC[C@@H](O)CO)cc2)c1C#N` [Example 60], the pEC50 at adenosine A2b receptor is 6.63. This compound returned an EC50 at adenosine A1 receptor of 0.3 nM.

For `Cc1oc(-c2ccccc2F)nc1CSc1nc(N)c(C#N)c(-c2ccc(OC[C@@H](O)CO)cc2)c1C#N` [Example 61], the pEC50 on adenosine A2a receptor is 6.36; on adenosine A2b receptor, 6.66. For the same compound, on adenosine A1 receptor, the midpoint of the response, the EC50, lay at 0.7 nM.

Take `COc1ccc(-c2nc(CSc3nc(N)c(C#N)c(-c4ccc(OC[C@H](O)CO)cc4)c3C#N)c(C)o2)cc1` [Example 66]: the values for the pEC50 at adenosine A2a receptor and at adenosine A2b receptor were 6.24 and 6.43, respectively. This compound also showed an EC50 on adenosine A1 receptor of 0.9 nM.

Regarding `Cc1cc(-c2nc(CSc3nc(N)c(C#N)c(-c4ccc(OC[C@H](O)CO)cc4)c3C#N)co2)ccc1Cl` [Example 80], the pEC50 on adenosine A2a receptor is 6.34; on adenosine A2b receptor, 7.05. This compound came in with an EC50 on adenosine A1 receptor of 0.8 nM.

For the compound `N#Cc1c(N)nc(SCc2coc(-c3ccc(F)cc3)n2)c(C#N)c1-c1ccc(OC[C@@H](O)CO)cc1` [Example 81], the pEC50 at adenosine A2a receptor was 7.19; on adenosine A2b receptor, 7.70. For the same compound, at adenosine A1 receptor, the EC50 is 0.3 nM.

As to `N#Cc1c(N)nc(SCc2ncoc2-c2ccc(Cl)cc2)c(C#N)c1-c1ccc(OC[C@@H](O)CO)cc1` [Example 93], the pEC50 was 6.28 at adenosine A2a receptor and 6.47 at adenosine A2b receptor. For the same compound, on adenosine A1 receptor, a half-maximal response (EC50) required 8.9 nM.

`Cc1oc(-c2ccc(C(=O)O)cc2)nc1CSc1nc(N)c(C#N)c(-c2ccc(OCC(C)(C)O)cc2)c1C#N` [Example 95, 4-{4-[({6-Amino-3,5-dicyano-4-[4-(2-hydroxy-2-methylpropoxy)phenyl]pyridin-2-yl}thio)methyl]-5-methyl-1,3-oxazol-2-yl}benzoic acid]: a half-maximal effect on adenosine A1 receptor (EC50) was put at 0.5 nM. In other words, the sub-nanomolar range.

Turning to `N#Cc1c(N)nc(SCc2coc(-c3ccc(F)cc3)n2)c(C#N)c1-c1ccc(OC[C@H](O)CO)cc1` [Example 101], the negative logarithm of the EC50 (pEC50) at adenosine A2a receptor is 7.14; at adenosine A2b receptor it was 6.65. The compound also displayed a concentration for a half-maximal effect (EC50) on adenosine A1 receptor of 0.4 nM.

Take `C[C@H](O)COc1ccc(-c2c(C#N)c(N)nc(SCc3coc(-c4ccc(Cl)cc4)n3)c2C#N)cc1` [Example 106]: the pEC50 at adenosine A2a receptor is 6.50; at adenosine A2b receptor, 7.32. This compound also displayed a 50% effective concentration (EC50) on adenosine A1 receptor of 0.3 nM.

Turning to `N#Cc1c(N)nc(OCc2coc(-c3ccc(Cl)cc3)n2)c(C#N)c1-c1ccc(OCCO)cc1` [Example 110, 2-Amino-6-{[2-(4-chlorophenyl)-1,3-oxazol-4-yl]methoxy}-4-[4-(2-hydroxyethoxy)phenyl]pyridine-3,5-dicarbonitrile], the pEC50 on adenosine A2a receptor is 6.30; at adenosine A2b receptor, 7.02. Moreover, the concentration for a half-maximal effect (EC50) at adenosine A1 receptor is 0.3 nM.

Take `N#Cc1c(N)nc(OCc2coc(-c3ccc(F)c(F)c3)n2)c(C#N)c1-c1ccc(OCCO)cc1` [Example 114]: the figures for the pEC50 on adenosine A2a receptor and on adenosine A2b receptor were 5.71 and 6.01, respectively. This compound also yielded an EC50 on adenosine A1 receptor of 0.2 nM.

In turn, `N#Cc1c(SCc2coc(-c3ccc(Cl)cc3)n2)nc(N2CCCC2)c(C#N)c1-c1ccc(OCCO)cc1` [Example 116, 2-({[2-(4-Chlorophenyl)-1,3-oxazol-4-yl]methyl}sulfanyl)-4-[4-(2-hydroxyethoxy)phenyl]-6-(pyrrolidin-1-yl)pyridine-3,5-dicarbonitrile] gave a pEC50 on adenosine A2b receptor of 6.16. The compound also came in with an EC50 at adenosine A1 receptor of 0.4 nM.

As to `N#Cc1c(NCCO)nc(SCc2coc(-c3ccc(Cl)cc3)n2)c(C#N)c1-c1ccc(OCCO)cc1` [Example 117], the figures for the pEC50 at adenosine A2a receptor and on adenosine A2b receptor were 5.84 and 5.96, respectively. On adenosine A1 receptor, this compound had an EC50 of 0.2 nM.

Turning to `N#Cc1c(NC[C@@H](O)CO)nc(SCc2coc(-c3ccc(Cl)cc3)n2)c(C#N)c1-c1ccc(OCCO)cc1` [Example 119], the pEC50 on adenosine A2a receptor was 5.71. Moreover, the EC50 on adenosine A1 receptor is 0.3 nM.

`N#Cc1c(NCCO)nc(SCc2coc(-c3ccc(Cl)cc3)n2)c(C#N)c1-c1ccc(OCCO)c(F)c1` [Example 122, 2-({[2-(4-Chlorophenyl)-1,3-oxazol-4-yl]methyl}sulfanyl)-4-[3-fluoro-4-(2-hydroxyethoxy)phenyl]-6-[(2-hydroxyethyl)amino]pyridine-3,5-dicarbonitrile]: the pEC50 at adenosine A2b receptor is 5.65. Further, the EC50 at adenosine A1 receptor turned out to be 4.1 nM.

On to `N#Cc1c(SCc2coc(-c3ccc(Cl)cc3)n2)nc(N2CCC2)c(C#N)c1-c1ccc(OCCO)cc1` [Example 126], for which the figures for the negative-log EC50 (pEC50) at adenosine A2a receptor and at adenosine A2b receptor were 6.16 and 7.11, respectively. For the same compound, the EC50 on adenosine A1 receptor came to 0.5 nM.

On to `N#Cc1c(SCc2coc(-c3ccc(Cl)cc3)n2)nc(N2CC[C@@H](O)C2)c(C#N)c1-c1ccc(OCCO)cc1` [Example 127], for which the pEC50 at adenosine A2a receptor is 6.01; at adenosine A2b receptor, 6.55. The EC50 at adenosine A1 receptor was 0.4 nM.

On to `N#Cc1c(NCCO)nc(OCc2coc(-c3ccc(Cl)cc3)n2)c(C#N)c1-c1ccc(OCCO)cc1` [Example 129], for which a half-maximal effect at adenosine A1 receptor (EC50) was put at 0.4 nM.

In turn, `N#Cc1c(OCc2coc(-c3ccc(Cl)cc3)n2)nc(N2CC(O)C2)c(C#N)c1-c1ccc(OCCO)cc1` [Example 130] showed a pEC50 at adenosine A2b receptor of 6.61. Further, at adenosine A1 receptor, the EC50 stood at 0.6 nM.
